The values that follow come from US20010049389A1, “Arthropod-controlling composition” (priority 2000, published 2001).

Format in all cases: in vivo
In series [1] the test system is adult American cockroaches (Periplaneta americana). Kind of series: Test Example 5: heating fumigant (ceramic plate) in 5.8 m^3 chamber, American cockroaches. Particulars: heating fumigant (Preparation example 24, 500 mg) at about 200° C. in 5.8 m^3 chamber. The method, then: On the bottom of a cubic chamber having 1.8 m of side (5.8 m^3), the heating fumigant (ceramic plate) obtained in Preparation example 24 with an electric heater was set in the center. Two plastic cups were put at two corners in the chamber, wherein each cup has ten (5 males and 5 females) adult German cockroaches (Blattella germanica) therein. Two hours after turning on an electric current, the ceramic plate was heated to about 200° C. (200±5° C.) and the active ingredient was vaporized. The heating temperature was estimated by measuring a surface temperature of the ceramic plate with radiation pyrometer (TR-0506C produced by Minolta Company) in advance. Then, the knocked-down cockroaches were counted and the knock-down percentage was calculated. Further, the cockroaches were transferred to a clean plastic cup and given foods and water. The mortality was observed after 7 days.
Furthermore, the same tests were performed except that six (3 males and 3 females) adult smokybrown cockroaches (Periplaneta fuliginosa) and six (3 males and 3 females) adult American cockroaches (Periplaneta americana) were used in place of ten German cockroaches.

Another series relates to ants (Formica japonica). Kind of series: Test Example 14: oil-based aerosol spray, ants. The settings on record: about 450 mg of 1.0% oil-based aerosol sprayed, after 2 days. How it is done: According to Preparation examples 10-14, 1.0% oil-based aerosol of the Pyrone Compound was obtained. In a 200 cc plastic cup having inside wall painted talc for preventing tested ants to escape, about 30 g of soil were set and 10 ants (Formica japonica) were release thereon. The plastic cup was set on the bottom center of a glass cylinder having 20 cm in diameter and 60 cm in height. About 450 mg of the above oil-based aerosol were sprayed to the ants from the upper part of the cylinder. After 10 seconds, the ants were taken out and put into a clean plastic cup having a piece of watermelon peel as food therein. After 2 days, the mortality was observed and the result was 70%.

For series [2], the system named is adult pill bugs (Armadillidium vulgare). Kind of series: Test Example 12: oil-based aerosol spray, pill bugs. Particulars: about 450 mg of 1.0% oil-based aerosol sprayed, after 3 days. The method, then:
(§1) According to Preparation examples 10-14, 1.0% oil-based aerosol of the Pyrone Compound was obtained. A container (8.75 cm in diameter, 7.5 cm in height, bottom covered 16-mesh iron net and inside wall painted butter for preventing tested pill bugs to escape) having 5 adult pill bugs (Armadillidium vulgare) therein was set on the bottom center of a glass cylinder having 20 cm in diameter and 60 cm in height. About 450 mg of the above oil-based aerosol were sprayed to the pill bugs from the upper part of the cylinder. After 30 seconds, the pill bugs were taken out and put into a clean plastic cup having soil and dead leaves therein. The pill bugs were given food and water and observed after 3 days. The tests were repeated twice. The mortality was 100%. Reference compound was also tested and the mortality was 40%.

In series [3] the test system is adult German cockroaches (Blattella germanica). Kind of series: Test Example 4: smoking formulation in 28 m^3 chamber, German cockroaches. The settings on record: 10 g smoking (Preparation example 25) in 28 m^3 chamber. The text has this: In a test chamber of 3 m×4 m and 2.3 m in height (28 m^3), two plastic cups were put at two corners, wherein each cup has ten (5 males and 5 females) adult German cockroaches (Blattella germanica) therein. Ten grams (10 g) of the smoking obtained in Preparation example 25 and 50g of magnesium oxide were charged into each of the cells in an aluminum container having an aluminum wall. The cell charged magnesium oxide has small holes. The aluminum container was dipped into water in the plastic container set in the test chamber. The smoking was heated to release the vaporized active ingredient by the reaction heats of magnesium oxide with water. After 2 hours, knock-down percentage was observed. Further, the cockroaches were transferred to a clean plastic cup and given foods and water. The mortality was observed after 7 days.

For series [4] the test system is unchanged. Kind of series: Test Example 21: total-release aerosol in 28 m^3 chamber, German cockroaches. Particulars: total-release aerosol (Preparation example 16) in 28 m^3 chamber, after 2 hours. How it is done:
In a test chamber of 3 m×4 m and 2.3 m in height (28 m^3), two plastic cups were put at two corners, wherein each cup has ten (5 males and 5 females) adult German cockroaches (Blattella germanica) therein. The formulation obtained in Preparation example 16 was set in the center of the bottom and the contents of the aerosol were totally released. After 2 hours, the knock-down percentage was 100%.

For series [5], the system named is adult cat fleas (Ctenocephalides felis). Kind of series: Test Example 7: treated filter paper contact, adult cat fleas. Particulars: three repetitions. The method, then: A designated amount of the Pyrone Compound was dissolved in acetone to give a 0.2 ml solution, which was uniformly treated on a filter paper having 3.8 cm in diameter, and air-dried for one hour. The filter paper was filled in a lid of a 200 ml glass bottle. Twenty adult cat fleas (Ctenocephalides felis) were released in the glass bottle, which was followed by covering with the lid. The glass bottle was upset for making the fleas contact with the filter paper, and kept at room temperature (25±3° C.) for one day. After that, the mortality was observed.

Series [6] deals with adult German cockroaches (Blattella germanica). Kind of series: Test Example 3: direct spray of oil solution, knock-down of German cockroaches. Particulars: 1.5 ml of 0.5% oil solution sprayed directly, one minute after spraying. The method, then: A square of paper (side: 20 cm) was covered on the iron net set on the bottom of the metallic chamber (46 cm×46 cm, 70 cm in height). A container (8.75 cm in diameter, 7.5 cm in height, having 16-mesh net at the bottom and spreading butter on the wall for preventing escape) was set on the paper. In the container, ten (5 males and 5 females) adult German cockroaches (Blattella germanica) were released. By means of spray gun, 1.5 ml of the oil solution obtained in Preparation example 9 was applied to the test insects at a pressure of 0.42 kg/cm^2 from the upper part of the chamber. The container was taken out of the chamber 30 seconds after spraying and the test insects were transferred to a clean plastic cup. One minute after spraying, the knocked-down cockroaches were counted. As a result, the knock-down percentage was 100%. Reference compound was also tested and the knock-down percentage was 42%.

The subject of series [7] is adult American house dust mites (Dermatophagoides farinae). Kind of series: Test Example 10: treated drawing paper, American house dust mites. Particulars: drawing paper 800 mg/m^2, 25° C., 65% humidity, 24 hours. How it is done:
On a black drawing paper having 38 mm in diameter, 0.2 ml of an acetone solution of the Pyrone Compound was added dropwise and air-dried. The treated dosage was 800 mg/m^2. The drawing paper was set on an aluminum plate having 38 mm in diameter and adhesives were put on the edge to prevent for tested mites to escape. About 30 adult American house dust mites (Dermatophagoides farinae) were released on the drawing paper and kept at 25° C. and 65% of humidity for 24 hours. After that, the mortality was observed. The result was 100%.

For the next series, the system named is adult Porcellio scaber. Kind of series: Test Example 13: oil-based aerosol spray, Porcellio scaber. The settings on record: about 450 mg of 1.0% oil-based aerosol sprayed, after 3 days. How it is done: as §1
The same procedure was performed as in Test example 12 except that 5 adult Porcellio scaber were used in place of Armadillidium vulgare. As a result, the mortality of the Pyrone Compound was 100%.

For `Cc1cc(O)c(C(=O)CC(C)C)c(=O)o1` [The Pyrone Compound], the “Mortality (%)” value in [1] (after 7 days) turned out to be 67%; in [3] (after 7 days), 100%; in [5] (dosage 200 mg/m^2, one day) it was 98%; in series [5] (dosage 800 mg/m^2, one day), 100%. Besides, the “Knock-down percentage (%)” value in series [1] (two hours) and in series [3] (after 2 hours) was 100% in each case. Further, the mortality with ants (Formica japonica) amounted to 70%; in series [2], 100%; in [7], 100%; in the series with adult Porcellio scaber, 100%. In addition, the knock-down percentage in series [4] and in [6] was 100% in each case.
